From patent US11596692B1 (Incyte Corporation, priority 2018, dated 2023)
Like-named read-outs stand apart in the source and are kept apart here.

Tested on: IRF3
Assay: IRF3 activation assay in THP-1 Dual cells
Assay type: cell-based
Conditions: Homo sapiens, read-out: THP1 IRF3 EC50
Experimental: THP-1 Dual Cells (Invivogen) were maintained in RPMI1640 medium with addition of 10% FBS, 100 μg/ml zeocin, 10 μg/ml blasticidin. Cells were added in a 96-well flat bottom assay plate at 100,000 per well in 100 μL complete RPMI medium. Test compounds were prepared by serial dilution in complete RPMI medium and 100 μL test compounds were transferred to each corresponding well. The assay plate was incubated at 37° C., 5% CO2 for 24 hours. After the overnight incubation, 20 μL of the culture supernatants were collected, followed by addition of 180 μL of QUANTI-Blue (Invivogen) to assess IRF3 activity. The amount of IRF3 activation was assessed by reading the absorbance at 620-655 nm with a microplate reader 2 hours later. The culture supernatant from the untreated THP-1 cells was used as the negative control. EC50 determination was performed by fitting the curve of percent control activity versus the log of the compound concentration using the GraphPad Prism 6.0 software.

Compound	EC50 (THP-1, Table 4A) [nM]	EC50 (THP-1, Table 4B) [nM]	EC50 (THP-1, Table 4C) [nM]
CCn1nc(C)cc1C(=O)Nc1nc2cc(C(N)=O)cc(O)c2n1C/C=C/Cn1c2nc(-c3cc(C)nn3CC)ncc2c2cc(C(N)=O)cc(OCCCOC)c21 [Example S28, (E)-9-(4-(5-carbamoyl-2-(1-ethyl-3-methyl-1H-pyrazole-5-carboxamido)-7-hydroxy-1H-benzo[d]imidazol-1-yl)but-2-en-1-yl)-2-(1-ethyl-3-methyl-1H-pyrazol-5-yl)-8-(3-methoxypropoxy)-9H-pyrimido[4,5-b]indole-6-carboxamide]	≤ 100	< 200	≤ 50
CCn1nc(C)cc1C(=O)Nc1nc2cc(C(N)=O)cc(OCCOCCOCCC(=O)O)c2n1C/C=C/Cn1c2nc(-c3cc(C)nn3CC)ncc2c2cc(C(N)=O)cc(OCCCOC)c21 [Example S49, (E)-3-(2-(2-((5-carbamoyl-1-(4-(6-carbamoyl-2-(1-ethyl-3-methyl-1H-pyrazol-5-yl)-8-(3-methoxypropoxy)-9H-pyrimido[4,5-b]indol-9-yl)but-2-en-1-yl)-2-(1-ethyl-3-methyl-1H-pyrazole-5-carboxamido)-1H-benzo[d]imidazol-7-yl)oxy)ethoxy)ethoxy)propanoic acid]			≤ 50
CCn1nc(C)cc1C(=O)Nc1nc2cc(C(N)=O)cc(OCCCO)c2n1C/C=C/Cn1c2nc(-c3cc(C)nn3CC)ncc2c2cc(C(N)=O)cc(OCCCN3CCOCC3)c21 [Example S20, (E)-9-(4-(5-carbamoyl-2-(1-ethyl-3-methyl-1H-pyrazole-5-carboxamido)-7-(3-hydroxypropoxy)-1H-benzo[d]imidazol-1-yl)but-2-en-1-yl)-2-(1-ethyl-3-methyl-1H-pyrazol-5-yl)-8-(3-morpholinopropoxy)-9H-pyrimido[4,5-b]indole-6-carboxamide]	≤ 100	< 200	≤ 50
CCn1nc(C)cc1C(=O)Nc1nc2cc(C(N)=O)cc(C)c2n1C/C=C/Cn1c2nc(-c3cc(C)nn3CC)ccc2c2cc(C(N)=O)cc(OC)c21 [Example S14, (E)-9-(4-(5-carbamoyl-2-(1-ethyl-3-methyl-1H-pyrazole-5-carboxamido)-7-methyl-1H-benzo[d]imidazol-1-yl)but-2-enyl)-2-(1-ethyl-3-methyl-1H-pyrazol-5-yl)-8-methoxy-9H-pyrido[2,3-b]indole-6-carboxamide]	≤ 100	< 200	≤ 50
CCn1nc(C)cc1C(=O)Nc1nc2cc(C(N)=O)cc(OCCCO)c2n1C/C=C/Cn1c2nc(-c3cc(C)nn3CC)ncc2c2cc(C(N)=O)cc(OC)c21 [Example S16, (E)-9-(4-(5-carbamoyl-2-(1-ethyl-3-methyl-1H-pyrazole-5-carboxamido)-7-(3-hydroxypropoxy)-1H-benzo[d]imidazol-1-yl)but-2-en-1-yl)-2-(1-ethyl-3-methyl-1H-pyrazol-5-yl)-8-methoxy-9H-pyrimido[4,5-b]indole-6-carboxamide]	≤ 100	< 200	≤ 50
CCn1nc(C)cc1C(=O)Nc1nc2cc(C(N)=O)cc(OCCCNC(=O)CCCC(=O)O)c2n1C/C=C/Cn1c2nc(-c3cc(C)nn3CC)ncc2c2cc(C(N)=O)cc(OCCCOC)c21 [Example S39, (E)-5-((3-((5-carbamoyl-1-(4-(6-carbamoyl-2-(1-ethyl-3-methyl-1H-pyrazol-5-yl)-8-(3-methoxypropoxy)-9H-pyrimido[4,5-b]indol-9-yl)but-2-en-1-yl)-2-(1-ethyl-3-methyl-1H-pyrazole-5-carboxamido)-1H-benzo[d]imidazol-7-yl)oxy)propyl)amino)-5-oxopentanoic acid]			≤ 50
CCn1nc(C)cc1C(=O)Nc1nc2cc(C(N)=O)cc(OCCCN3CCN(C)CC3)c2n1C/C=C/Cn1c2nc(-c3cc(C)nn3CC)ncc2c2cc(C(N)=O)cc(OCCCOC)c21 [Example S36, (E)-9-(4-(5-carbamoyl-2-(1-ethyl-3-methyl-1H-pyrazole-5-carboxamido)-7-(3-(4-methylpiperazin-1-yl)propoxy)-1H-benzo[d]imidazol-1-yl)but-2-en-1-yl)-2-(1-ethyl-3-methyl-1H-pyrazol-5-yl)-8-(3-methoxypropoxy)-9H-pyrimido[4,5-b]indole-6-carboxamide]			50 to 200

Continued, values first:

EC50 (THP-1, Table 4A) [nM]	EC50 (THP-1, Table 4B) [nM]	EC50 (THP-1, Table 4C) [nM]	Compound
≤ 100	< 200	≤ 50	CCn1nc(C)cc1C(=O)Nc1nc2cc(C(N)=O)cc(OCCCO)c2n1C/C=C/Cn1c2nc(-c3cc(C)nn3CC)ncc2c2cc(C(N)=O)cc(OCCCOC)c21 [Example S22, (E)-9-(4-(5-carbamoyl-2-(1-ethyl-3-methyl-1H-pyrazole-5-carboxamido)-7-(3-hydroxypropoxy)-1H-benzo[d]imidazol-1-yl)but-2-en-1-yl)-2-(1-ethyl-3-methyl-1H-pyrazol-5-yl)-8-(3-methoxypropoxy)-9H-pyrimido[4,5-b]indole-6-carboxamide]
≤ 100	< 200	≤ 50	CCn1nc(C)cc1C(=O)Nc1nc2cc(C(N)=O)cc(OCCCO)c2n1C/C=C/Cn1c2ccc(C(N)=O)cc2c2cnc(-c3cc(C)nn3CC)nc21 [Example S18, (E)-9-(4-(5-carbamoyl-2-(1-ethyl-3-methyl-1H-pyrazole-5-carboxamido)-7-(3-hydroxypropoxy)-1H-benzo[d]imidazol-1-yl)but-2-en-1-yl)-2-(1-ethyl-3-methyl-1H-pyrazol-5-yl)-9H-pyrimido[4,5-b]indole-6-carboxamide]
		≤ 50	CCn1nc(C)cc1C(=O)Nc1nc2cc(C(N)=O)cc(OCCO)c2n1C/C=C/Cn1c2nc(-c3cc(C)nn3CC)ncc2c2cc(C(N)=O)cc(OCCCOC)c21 [Example S41, (E)-9-(4-(5-carbamoyl-2-(1-ethyl-3-methyl-1H-pyrazole-5-carboxamido)-7-(2-hydroxyethoxy)-1H-benzo[d]imidazol-1-yl)but-2-en-1-yl)-2-(1-ethyl-3-methyl-1H-pyrazol-5-yl)-8-(3-methoxypropoxy)-9H-pyrimido[4,5-b]indole-6-carboxamide]
≤ 100			CCn1nc(C)cc1C(=O)Nc1nc2cc(C(N)=O)c3ccoc3c2n1C/C=C/Cn1c2nc(-c3cc(C)nn3CC)ncc2c2cc(C(N)=O)cc(OCCCO)c21 [Example S69, (E)-1-(4-(6-carbamoyl-2-(1-ethyl-3-methyl-1H-pyrazol-5-yl)-8-(3-hydroxypropoxy)-9H-pyrimido[4,5-b]indol-9-yl)but-2-en-1-yl)-2-(1-ethyl-3-methyl-1H-pyrazole-5-carboxamido)-1H-benzofuro[6,7-d]imidazole-5-carboxamide]
		≤ 50	CCn1nc(C)cc1C(=O)Nc1nc2cc(C(N)=O)cc(OCCCOC)c2n1C/C=C/Cn1c2nc(-c3cc(C)nn3CC)ncc2c2cc(C(N)=O)cc(OCCCNC(=O)CCCC(=O)O)c21 [Example S55, (E)-5-(3-(6-carbamoyl-9-(4-(5-carbamoyl-2-(1-ethyl-3-methyl-1H-pyrazole-5-carboxamido)-7-(3-methoxypropoxy)-1H-benzo[d]imidazol-1-yl)but-2-enyl)-2-(1-ethyl-3-methyl-1H-pyrazol-5-yl)-9H-pyrimido[4,5-b]indol-8-yloxy)propylamino)-5-oxopentanoic acid]
500 to 1000	< 1000	50 to 200	CCn1nc(C)cc1C(=O)Nc1nc2cc(C(N)=O)cc(C)c2n1C/C=C/Cn1c2ccc(C(N)=O)cc2c2cnc(-c3cc(C)nn3CC)nc21 [Example S1, (E)-9-(4-(5-carbamoyl-2-(1-ethyl-3-methyl-1H-pyrazole-5-carboxamido)-7-methyl-1H-benzo[d]imidazol-1-yl)but-2-enyl)-2-(1-ethyl-3-methyl-1H-pyrazol-5-yl)-9H-pyrimido[4,5-b]indole-6-carboxamide]
